From US8815919B2, “Oxadiazole derivatives” (Merck Serono SA, priority 2009, dated 2014)
Where a name gives a salt, the structure may show the parent alone. Read-outs that look alike come from different tables or passages of the source.

Key:
[1] = target: T1, S1P1 (Homo sapiens, UniProt P21453); assay: Receptor binding assay, [33P]sphingosine 1-phosphate competition, S1P1 membranes, WGA SPA beads
Description: (§1) Membranes were prepared from CHO cells expressing S1P1 or S1P3 for use in ligand and […] binding studies. Cells were suspended in 50 mM TRIS, pH 7.4, 2 mM EDTA, 250 mM Sucrose (buffer A) and 1× Complete protease inhibitor cocktail (Roche), and disrupted at 4° C. by N2 decompression using a cell disruption bomb (Parr Instrument). Following centrifugation at 1000 RPM for 10 min at 4° C., the supernatant was diluted (2×) in buffer A and centrifuged again at 19000 RPM for 75 min at 4° C. The pellet was then suspended in 10 mM HEPES, pH 7.4, 1 mM EDTA, 250 mM Sucrose (Buffer B), and 1× Complete EDTA-free protease inhibitor cocktail and homogenized using a potter. Membranes were flash frozen in liquid N2 and stored at −80° C.
(§2) Receptor binding assay: [33P]sphingosine 1-phosphate (3000 Ci/mmol; American Radiolabeled Chemicals, Inc.) was added to test compounds in 20% DMSO by competition. Membranes and WGA SPA beads (GE Healthcare) were added to give a final volume of 100 μl in 96-well plates or 50 μl in 384-well plates with assay concentrations of […] [33P]sphingosine 1-phosphate (respectively for S1P1 or S1P3), 50 mM HEPES, pH 7.5, 5 mM MgCl2, 100 mM NaCl, 0.4% fatty acid-free BSA, 1-5 μg/well of proteins in 96-well plates vs 0.6-1 μg/well of proteins in 384-well plates and 100 μg/well of WGA SPA beads in 96-well plates vs 75 μg/well of WGA SPA beads in 384-well plates. Binding was performed for 60 min at RT on a shaker and bound radioactivity was measured on a PerkinElmer 1450 MicroBeta counter. Triplicate samples were averaged and normalized as percentage of inhibition relative to total binding (only DMSO in well) and nonspecific binding (1000-fold excess of unlabeled S1P). Binding data were analyzed using the GraphPad Prism program or Genedata software.
Target sequence in this assay (P21453 whole entry, species assumed): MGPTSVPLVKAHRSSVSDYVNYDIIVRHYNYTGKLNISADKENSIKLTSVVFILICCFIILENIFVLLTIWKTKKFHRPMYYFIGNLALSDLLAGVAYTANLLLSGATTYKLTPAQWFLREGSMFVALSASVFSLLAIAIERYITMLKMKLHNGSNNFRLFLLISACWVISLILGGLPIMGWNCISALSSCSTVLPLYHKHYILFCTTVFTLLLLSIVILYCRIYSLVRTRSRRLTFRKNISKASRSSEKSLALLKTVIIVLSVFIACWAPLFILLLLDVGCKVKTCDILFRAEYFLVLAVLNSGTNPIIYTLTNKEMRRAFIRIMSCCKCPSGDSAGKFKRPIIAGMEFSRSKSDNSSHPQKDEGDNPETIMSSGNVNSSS

[2] = target: S1P3 (Homo sapiens, UniProt Q99500); assay: Receptor binding assay, [33P]sphingosine 1-phosphate competition, S1P3 membranes, WGA SPA beads
Description: as §1, §2

[3] = target: T1, S1P1; assay: S1P1 internalization assay in S1P1-U2OS cells (S1P1-EGFP), cell imaging; assay type: cell-based; design: host or cells: U2OS (human bone osteosarcoma epithelial cells), CMV promoter, geneticin selection; details: 1 hour incubation
Description: Cellular functional assays: Internalization of Sphingosine-1-phosphate receptor 1 (S1P1) in a human Cell line (U2OS) in a 384-well format using a Cell Imaging analysis. • Jo, E.; Sanna, M. G.; Gonzalez-Cabrera, P. J.; Thangada, S.; Tigyi, S.; Osborne, D. A.; Hla, T.; Parrill, A. L.; Rosen, H. Chem. Biol. 2005, 12, 703
The S1P1 internalization assay was performed in 384 well plates (Corning® 384 black with clear bottom 3712) using S1P1-U2OS cells from Biolmage (C039A), a human epithelial cell line (Human Bone Osteosarcoma Epithelial Cells). These cells expressed the human S1P1 Receptor fused to the green fluorescent protein (EGFP). A standard CMV promoter (cytomegalovirus promoter) controls the expression of S1P1-EGFP and continuous expression was maintained by addition of geneticin to the culture medium.
S1P1 Receptor desensitization induced the internalization of the membrane-localized S1P1-EGFP fusion protein to endosomes, which can be monitored by cell imaging analysis. The cells are plated in low serum medium (Dulbecco's Modified Eagle Medium (DMEM) with Glutamax-1 and high glucose, 1% Penicillin/Streptomycin, 1% Fetal Calf Serum (FCS), 0.5 mg/ml Geneticin) overnight.
The next day, S1P1-U2OS cells are incubated in 20 μl serum free medium (DMEM with Glutamax-1 and high glucose, 0.1% of fatty-acid free Bovin Serum Albumin (BSA), 10 mM, N′-2-Hydroxyethylpiperazine-N′-2 ethanesulphonic acid (HEPES) 1M) for 2 hours at 37° C./5% CO2. The cells are then treated with 4 μl compounds/agonists (6×/3% DMSO) for a total volume of 24 μl, and plates are incubated for 1 hour at 37° C./5% CO2.
S1P1-U2OS cells are fixed with 25 μl Paraformaldehyde 8% and stained with Hoechst 33345 dye (1:1000) for 20 minutes.
They were then washed 3 times with Phosphate Buffered Saline (PBS) and plates are sealed. The internalization of the receptor S1P1-EGFP is measured on Cellomics by calculating the “spot count per object” (“object” corresponds to nuclear and “spot” corresponds to S1P1-EGFP receptor). Internalization data were observed thanks to vHCS View and analyzed using Genedata® software.
Target sequence in this assay (P21453 whole entry): as the sequence (P21453 whole entry, species assumed) above

[4] = 96 well-plate, read-out: S1P1 binding Ki (M) (96 well-plate)
[5] = 96 well-plate, read-out: S1P3 binding Ki (M) (96 well-plate)
[6] = 384 well-plate, read-out: S1P3 binding Ki (M) (384 well-plate)
[7] = 384 well-plate, read-out: S1P1 binding Ki (M) (384 well-plate)

S1P3, sequence (Q99500 whole entry, species assumed): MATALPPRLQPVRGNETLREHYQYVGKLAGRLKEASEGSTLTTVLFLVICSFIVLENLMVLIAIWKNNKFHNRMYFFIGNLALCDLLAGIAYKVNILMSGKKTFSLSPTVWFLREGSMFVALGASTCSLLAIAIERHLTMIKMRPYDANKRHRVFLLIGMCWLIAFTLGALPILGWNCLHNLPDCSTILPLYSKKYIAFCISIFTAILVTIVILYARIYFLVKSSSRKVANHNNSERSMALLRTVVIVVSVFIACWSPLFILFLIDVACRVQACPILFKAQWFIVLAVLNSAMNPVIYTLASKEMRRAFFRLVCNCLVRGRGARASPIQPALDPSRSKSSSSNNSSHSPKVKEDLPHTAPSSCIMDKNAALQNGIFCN

SMILES | Ki [1, 4] [M] | Ki [2, 5] [M] | EC50 [3] [nM] | Ki [2, 6] [M] | Ki [1, 7] [M]
COCc1cc(-c2nc(-c3ccc(OCCO)c(F)c3)no2)ccc1-c1ccccc1C [Example 28, 2-(2-fluoro-4-{5-[2-(methoxymethyl)-2′-methylbiphenyl-4-yl]-1,2,4-oxadiazol-3-yl}phenoxy)ethanol] | 8.88e-10 | 2.14e-07 | 11.9 |  | 
COCc1cc(-c2nc(-c3cccc(CN(C)CC(=O)O)c3)no2)ccc1N1CCCCC1 [Example 29] | 1.47e-10 |  | 7.33 | 2.38e-07 | 
CCOc1cc(-c2nc(-c3cccc(CN(C)CC(=O)O)c3)no2)ccc1-c1ccccc1C [Example 30, N-{3-[5-(2-ethoxy-2′-methylbiphenyl-4-yl)-1,2,4-oxadiazol-3-yl]benzyl}-N-methylglycine, hydrochloride salt] | 2.01e-10 | 3e-08 | 8.92 |  | 
COCc1cc(-c2nc(-c3cccc(CN(C)CC(=O)O)c3)no2)ccc1-c1ccccc1 [Example 33] | 1.83e-10 | 6.24e-08 | 6.96 |  | 
COCc1cc(-c2nc(-c3cccc(CN(C)CC(=O)O)c3)no2)ccc1N1CCCC1C (centres unmarked) [Example 34, N-(3-{5-[3-(methoxymethyl)-4-(2-methylpyrrolidin-1-yl)phenyl]-1,2,4-oxadiazol-3-yl}benzyl)-N-methylglycine] | 1.18e-10 | 3.03e-07 | 13.5 |  | 
COCc1cc(-c2nc(-c3cccc(CN(C)CC(=O)O)c3)no2)ccc1-c1cccc(F)c1C [Example 35, N-(3-{5-[3′-fluoro-2-(methoxymethyl)-2′-methylbiphenyl-4-yl]-1,2,4-oxadiazol-3-yl}benzyl)-N-methylglycine, hydrochloride salt] | 1.98e-10 | 9.4e-08 | 5.88 |  | 
COCc1cc(-c2nc(-c3cccc(CN(C)CC(=O)O)c3)no2)ccc1-c1ccc(F)cc1C [Example 36, N-(3-{5-[4′-fluoro-2-(methoxymethyl)-2′-methylbiphenyl-4-yl]-1,2,4-oxadiazol-3-yl}benzyl)-N-methylglycine, hydrochloride salt] | 5.59e-10 |  | 14.8 | 2.71e-07 | 1.97e-09
COCc1cc(-c2nc(-c3cccc(CN(C)CC(=O)O)c3)no2)ccc1-c1cc(F)ccc1C [Example 37, N-(3-{5-[5′-fluoro-2-(methoxymethyl)-2′-methylbiphenyl-4-yl]-1,2,4-oxadiazol-3-yl}benzyl)-N-methylglycine, hydrochloride salt] | 3.33e-10 | 6.34e-08 | 6.56 |  | 
CC1CCCCN1c1ccc(-c2nc(-c3cccc(COCC(=O)O)c3)no2)cc1C(F)(F)F (centres unmarked) [Example 38, [(3-{5-[4-(2-methylpiperidin-1-yl)-3-(trifluoromethyl)phenyl]-1,2,4-oxadiazol-3-yl}benzyl)oxy]acetic acid, hydrochloride salt] | 6.22e-10 | 6.74e-07 | 15.4 |  | 
COCc1cc(-c2nc(-c3cccc(CN(C)CC(O)CO)c3)no2)ccc1-c1ccccc1C (centres unmarked) [Example 39, 3-[(3-{5-[2-(methoxymethyl)-2′-methylbiphenyl-4-yl]-1,2,4-oxadiazol-3-yl}benzyl)(methyl)amino]propane-1,2-diol] | 3.71e-10 | 8.48e-07 | 13.5 | 1.18e-06 | 2.08e-09
COCc1cc(-c2nc(-c3cccc(CN(CCO)CCO)c3)no2)ccc1-c1ccccc1C [Example 40, 2,2′-[(3-{5-[2-(methoxymethyl)-2′-methylbiphenyl-4-yl]-1,2,4-oxadiazol-3-yl}benzyl)imino]diethanol] | 4.52e-10 | 5.35e-07 | 18.2 | 9.69e-07 | 
COCc1cc(-c2nc(-c3cccc(CC(=O)NCCN(C)C)c3)no2)ccc1-c1ccccc1C [Example 41, N-[2-(dimethylamino)ethyl]-2-(3-{5-[2-(methoxymethyl)-2′-methylbiphenyl-4-yl]-1,2,4-oxadiazol-3-yl}phenyl)acetamide] | 1.27e-09 |  | 76.9 | 4.3e-06 | 8.34e-09
COCc1cc(-c2nc(-c3cccc(CN(C)CC(=O)O)c3)no2)ccc1-c1ccc(F)c(F)c1C [Example 42, N-(3-{5-[3′,4′-difluoro-2-(methoxymethyl)-2′-methylbiphenyl-4-yl]-1,2,4-oxadiazol-3-yl}benzyl)-N-methylglycine, hydrochloride salt] | 1.82e-10 |  | 18.3 | 2.75e-07 | 1.7e-09
COCc1cc(-c2nc(-c3cccc(CC(=O)NCCC(=O)O)c3)no2)ccc1-c1ccccc1C [Example 43, N-[(3-{5-[2-(methoxymethyl)-2′-methylbiphenyl-4-yl]-1,2,4-oxadiazol-3-yl}phenyl)acetyl]-beta-alanine] | 2.16e-09 |  | 34.5 | 2e-07 | 6.6e-09
COCc1cc(-c2nc(-c3cccc(CC(=O)N(C)CC(=O)O)c3)no2)ccc1-c1ccccc1C [Example 44, N-[(3-{5-[2-(methoxymethyl)-2′-methylbiphenyl-4-yl]-1,2,4-oxadiazol-3-yl}phenyl)acetyl]-N-methylglycine] | 1.71e-09 |  | 115 | 1.31e-07 | 1.02e-08
C[C@@H]1CCCCN1c1ccc(-c2nc(-c3cccc(CN(C)CC(=O)O)c3)no2)cc1C(F)(F)F [Example 45, N-methyl-N-(3-{5-[4-[(2R)-2-methylpiperidin-1-yl]-3-(trifluoromethyl)phenyl]-1,2,4-oxadiazol-3-yl}benzyl)glycine, hydrochloride salt] | 5.2e-10 | 1.82e-07 | 12.1 |  | 
C[C@H]1CCCCN1c1ccc(-c2nc(-c3cccc(CN(C)CC(=O)O)c3)no2)cc1C(F)(F)F [Example 46, N-methyl-N-(3-{5-[4-[(2S)-2-methylpiperidin-1-yl]-3-(trifluoromethyl)phenyl]-1,2,4-oxadiazol-3-yl}benzyl)glycine, hydrochloride salt] | 1.07e-10 | 1.31e-07 | 5.19 |  | 
COCc1cc(-c2nc(-c3cc(F)c(C(=O)NCCC(=O)O)cc3F)no2)ccc1-c1ccccc1C [Example 47, N-(2,5-difluoro-4-{5-[2-(methoxymethyl)-2′-methylbiphenyl-4-yl]-1,2,4-oxadiazol-3-yl}benzoyl)-beta-alanine] | 8.5e-10 | 4.03e-07 | 20.2 | 5.2e-07 | 
COCc1cc(-c2nc(-c3cccc(CCN(C)CC(=O)OC(C)(C)C)c3)no2)ccc1-c1ccccc1C [Example 75] | 3.04e-09 |  | 195 |  | 
Cc1cc(-c2nc(-c3ccc(CN(C)CC(=O)O)cc3)no2)ccc1-c1ccccc1C(F)F [Example 137, N-(4-{5-[2′-(difluoromethyl)-2-methylbiphenyl-4-yl]-1,2,4-oxadiazol-3-yl}benzyl)-N-methylglycine, hydrochloride salt] | 8.55e-10 |  | 28.9 |  | 2.37e-09
